Oligonucleotides are written 5' to 3', each unit as a sugar letter and its base; * is a phosphorothioate linkage, no mark a phosphodiester; rarer units and linkages stand in square brackets, end groups in braces. Plain capitals give the bases only. e = 2'-O-(2-methoxyethyl) (MOE); [5mC] = 5-methylcytosine; d = 2'-deoxy (DNA)
Tests used:
Mouse STAT3 mRNA = assay: Inhibition of mouse STAT3 mRNA expression in BCL1 cells (electroporation; RNase protection/Northern blot); format: cell-based; set-up: % mRNA INHIBITION: dose or concentration left out as unconfirmed; details: BCL1 cells electroporated with oligonucleotide, RNA collected 24 hours later; for % mRNA EXPRESSION: control 100%
Procedure: The B lymphoma cell line, BCL1 was obtained from ATCC (Rockville, Md.). BCL1 cells were cultured in RPMI 1640 medium.
BCL1 cells (5×10^6 cells in PBS) were transfected with oligonucleotides by electroporation, at 200V, […]. using a BTX Electro Cell Manipulator 600 (Genetronics, San Diego, Calif.). For an initial screen, BCL1 were electroporated with […] oligonucleotide and RNA collected 24 hours later. Controls without oligonucleotide were subjected to the same electroporation conditions.
Total cellular RNA was isolated using the RNEASY7 kit (Qiagen, Santa Clarita, Calif.). RNAse protection experiments were conducted using RIBOQUANT™ kits and template sets according to the manufacturer's instructions (Pharmingen, San Diego, Calif.). Northern blotting was performed as described in Chiang, M-Y. et al. (J. Biol. Chem., 1991, 266, 18162-18171), using a rat cDNA probe prepared by Xho I/Sal I restriction digest of psvsport-1 plasmid (ATCC, Rockville, Md.). mRNA levels were quantitated using a PhosphorImager (Molecular Dynamics, Sunnyvale, Calif.).

Human STAT3 mRNA = assay: Inhibition of human STAT3 mRNA expression in U266 cells, Northern blot; format: cell-based; details: for % mRNA INHIBITION / % mRNA EXPRESSION: U266 cells, 2.5 μM oligonucleotide, electroporation, 24 hours; for % mRNA EXPRESSION: percent of control
Procedure: U266 human myeloma cell lines (originally obtained from American Type Culture Collection) were maintained in RPMI 1640 medium supplemented with 10% fetal calf serum. Cells (15×10^6 cells in PBS) were transfected with oligonucleotides at 200V with a single 6-millisecond pulse using a BTX Electro Square Porator T820 (Genetronics, San Diego Calif.). The cells were incubated for 24 hours before RNA extraction.
Total cellular RNA was isolated using the Rneasy kit (Qiagen, Santa Clarita, Calif.). Northern blotting was perfomed on 15 μg of RNA using a cDNA probe prepared from MB-MDA 468 RNA by standard RT-PCR followed by a nested primer reaction. Signals were quantitated using a Molecular Dynamics Phosphorimager.
In order to examine the importance of STAT3 expression in multiple myeloma cells, a series of 20mer STAT3 antisense oligonucleotides were designed and synthesized, using phosphorothioate chemistry and incorporating 2′-O-methoxyethyl modifications to improve hybridization affinity and nuclease resistance.

Row | Substance | % mRNA INHIBITION (Mouse STAT3 mRNA) [%] | % mRNA EXPRESSION (Mouse STAT3 mRNA) [%] | % mRNA EXPRESSION (Human STAT3 mRNA) [%] | further results
1 | 17147 (antisense eT*e[5mC]*eA*eG*e[5mC]*dA*dC*dC*dT*dT*dC*dA*dC*dC*dG*eT*eT*eA*eT*eT) [compound 17147] | 30 | 70 | – | –
2 | 17148 (antisense ACTCAAACTGCCCTCCTGCT; listed as DNA, chemistry not fully specified) [compound 17148] | 31 | 69 | 95.1 | Percent inhibition of STAT3 expression (Human STAT3 mRNA; Oligo concentration 2.5 μM): 8%; Percent inhibition of STAT3 expression (Human STAT3 mRNA; Oligo concentration 5 μM): 54%; Percent inhibition of STAT3 expression (Human STAT3 mRNA; Oligo concentration 10 μM): 60%; % mRNA INHIBITION (Human STAT3 mRNA): 4.9%
3 | 17149 (antisense eG*eG*eT*eT*eT*dC*dA*dG*dC*dT*dC*dC*dT*dC*dA*e[5mC]*eA*eT*eG*eG) [compound 17149] | 30 | 70 | – | –
4 | 17150 (antisense eT*eA*eA*eA*eA*dA*dA*dA*dA*dA*dA*dA*dT*dC*dT*eG*eG*eA*eA*e[5mC]) [compound 17150] | 5 | 95 | – | –
5 | 17151 (antisense eA*eA*eG*eA*eT*dA*dG*dC*dA*dG*dA*dA*dG*dT*dA*eG*eG*eA*eA*eA) [compound 17151] | 8 | 92 | – | –
6 | 17153 (antisense eA*eT*e[5mC]*eA*e[5mC]*dC*dC*dA*dC*dA*dC*dT*dC*dA*dC*eT*e[5mC]*eA*eT*eT) [compound 17153] | 56 | 44 | – | –
7 | 17154 (antisense e[5mC]*e[5mC]*eT*eT*eT*dG*dC*dC*dT*dC*dC*dC*dT*dT*dC*eT*eG*e[5mC]*eT*e[5mC]) [compound 17154] | 20 | 80 | – | –
8 | 17155 (antisense eT*eG*eA*eA*eA*dA*dA*dG*dG*dA*dG*dG*dG*dC*dA*eG*eG*e[5mC]*eG*eG) [compound 17155] | 22 | 78 | – | –
9 | 17156 (antisense e[5mC]*eA*e[5mC]*e[5mC]*eA*dG*dG*dA*dG*dG*dC*dA*dC*dT*dT*eG*eT*e[5mC]*eT*eA) [compound 17156] | 60 | 40 | – | –
10 | 17157 (antisense eA*eA*e[5mC]*e[5mC]*eT*dC*dC*dT*dG*dG*dG*dC*dT*dT*dA*eG*eT*e[5mC]*e[5mC]*eT) [compound 17157] | 47 | 53 | – | –
11 | 113170 (eA*eG*e[5mC]*eT*eG*dA*dT*dT*d[5mC]*d[5mC]*dA*dT*dT*dG*dG*eG*e[5mC]*e[5mC]*eA*eT) [compound 113170] | – | – | 89.6 | % mRNA INHIBITION (Human STAT3 mRNA): 10.4%
12 | 113171 (e[5mC]*e[5mC]*eA*eG*eG*dA*dG*dA*dT*dT*dA*dT*dG*dA*dA*eA*e[5mC]*eA*e[5mC]*e[5mC]) [compound 113171] | – | – | 110.2 | –
13 | 113172 (antisense eA*e[5mC]*e[5mC]*eG*eT*dG*dT*dG*dT*d[5mC]*dA*dA*dG*d[5mC]*dT*eG*e[5mC]*eT*eG*eT) [compound 113172] | – | – | 96.1 | % mRNA INHIBITION (Human STAT3 mRNA): 3.9%
14 | 113173 (antisense e[5mC]*e[5mC]*eA*eT*eT*dG*dG*dG*dA*dA*dG*d[5mC]*dT*dG*dT*e[5mC]*eA*e[5mC]*eT*eG) [compound 113173] | – | – | 119 | –
15 | 113175 (antisense eG*e[5mC]*eG*eG*e[5mC]*dT*dA*dT*dA*d[5mC]*dT*dG*d[5mC]*dT*dG*eG*eT*e[5mC]*eA*eA) [compound 113175] | – | – | 75.8 | % mRNA INHIBITION (Human STAT3 mRNA): 24.2%
16 | 113178 (antisense eT*eG*eA*eT*eT*d[5mC]*dT*dT*d[5mC]*d[5mC]*d[5mC]*dA*d[5mC]*dA*dG*eG*e[5mC]*eA*e[5mC]*e[5mC]) [compound 113178] | – | – | 143.9 | –
17 | 113181 (antisense e[5mC]*e[5mC]*e[5mC]*eG*e[5mC]*d[5mC]*dA*dG*d[5mC]*dT*d[5mC]*dA*d[5mC]*dT*d[5mC]*eA*e[5mC]*eG*eA*eT) [compound 113181] | – | – | 105.4 | –
18 | 113184 (antisense e[5mC]*eG*e[5mC]*e[5mC]*eT*d[5mC]*dT*dT*d[5mC]*d[5mC]*dA*dG*dT*d[5mC]*dA*eG*e[5mC]*e[5mC]*eA*eG) [compound 113184] | – | – | 104.3 | –
19 | 113187 (antisense e[5mC]*e[5mC]*eG*e[5mC]*eT*d[5mC]*d[5mC]*dA*d[5mC]*d[5mC]*dA*d[5mC]*dA*dA*dA*eG*eG*e[5mC]*eA*e[5mC]) [compound 113187] | – | – | 55.9 | Percent inhibition of STAT3 expression (Human STAT3 mRNA; Oligo concentration 2.5 μM): 44%; Percent inhibition of STAT3 expression (Human STAT3 mRNA; Oligo concentration 5 μM): 56%; Percent inhibition of STAT3 expression (Human STAT3 mRNA; Oligo concentration 10 μM): 75%; % mRNA INHIBITION (Human STAT3 mRNA): 44.1%
20 | 113189 (antisense eT*eT*eG*eT*eG*dT*dT*dT*dG*dT*dG*d[5mC]*d[5mC]*d[5mC]*dA*eG*eA*eA*eT*eG) [compound 113189] | – | – | 163.9 | –
21 | 113207 (antisense eA*eT*e[5mC]*eA*e[5mC]*d[5mC]*d[5mC]*dA*d[5mC]*dA*dT*dT*d[5mC]*dA*d[5mC]*eT*e[5mC]*eA*eT*eT) [compound 113207] | – | – | 123.6 | –
22 | 113209 (antisense eA*eA*eA*eA*eG*dT*dG*d[5mC]*d[5mC]*d[5mC]*dA*dG*dA*dT*dT*eG*e[5mC]*eT*e[5mC]*eA) [compound 113209] | – | – | 71.4 | Percent inhibition of STAT3 expression (Human STAT3 mRNA; Oligo concentration 2.5 μM): 43%; Percent inhibition of STAT3 expression (Human STAT3 mRNA; Oligo concentration 5 μM): 54%; Percent inhibition of STAT3 expression (Human STAT3 mRNA; Oligo concentration 10 μM): 73%; % mRNA INHIBITION (Human STAT3 mRNA): 28.6%
23 | 113210 (antisense eT*eA*eA*eA*eA*dG*dT*dG*d[5mC]*d[5mC]*d[5mC]*dA*dG*dA*dT*eT*eG*e[5mC]*eT*e[5mC]) [compound 113210] | – | – | 72.2 | Percent inhibition of STAT3 expression (Human STAT3 mRNA; Oligo concentration 2.5 μM): 36%; Percent inhibition of STAT3 expression (Human STAT3 mRNA; Oligo concentration 5 μM): 50%; Percent inhibition of STAT3 expression (Human STAT3 mRNA; Oligo concentration 10 μM): 76%; % mRNA INHIBITION (Human STAT3 mRNA): 27.8%
24 | 113211 (antisense eA*eA*eG*e[5mC]*eA*dG*dA*dT*d[5mC]*dA*d[5mC]*d[5mC]*d[5mC]*dA*d[5mC]*eA*eT*eT*e[5mC]*eA) [compound 113211] | – | – | 116.5 | –

— patent publication US20050074879A1, “Antisense oligonucleotide modulation of STAT3 expression” (priority 2000, published 2005)
